Reference: PMC6236315 (Molecular Medicine Reports, 2018)
Structures can show the parent of a compound that is named as a salt.

Assays:
LAD2 mast cells [1] = experiment: β-Hexosaminidase release; type: cell-based, human; settings: 37°C
LAD2 mast cells [2] = experiment: LL-37 internalization into LAD2 cells; type: cell-based, human; settings: 37°C
[3] = chlorpromazine 2.5 µM, 30 min pre-treatment, then LL-37 5 µM, 40 min
[4] = genistein 10 µM, 30 min pre-treatment, then LL-37 5 µM, 40 min
[5] = pertussis toxin 250 ng/ml, 1 h pre-treatment, then LL-37 5 µM for 40 min

Compound: CN(C)CCCN1c2ccccc2Sc2ccc(Cl)cc21 [chlorpromazine, Chlorpromazine hydrochloride]
- effect on LL-37-induced degranulation (β-hexosaminidase release) (LAD2 mast cells [1]; [3]): inhibited degranulation
- effect on LL-37 internalization (fluorescence intensity) (LAD2 mast cells [2]; [3]): suppressed LL-37 internalization

Compound: O=C(N/N=C/c1ccc(O)c(O)c1)c1cc2ccccc2cc1O [dynasore, Dynasore]
- effect on LL-37-induced degranulation (β-hexosaminidase release) (LAD2 mast cells [1]; dynasore 10 µM, 30 min pre-treatment, then LL-37 5 µM, 40 min): inhibited degranulation

Compound: O=c1c(-c2ccc(O)cc2)coc2cc(O)cc(O)c12 [genistein]
- effect on LL-37-induced degranulation (β-hexosaminidase release) (LAD2 mast cells [1]; [4]): did not affect
- effect on LL-37 internalization (fluorescence intensity) (LAD2 mast cells [2]; [4]): did not affect

Compound: pertussis toxin
- effect on LL-37-induced degranulation (β-hexosaminidase release) (LAD2 mast cells [1]; [5]): significantly suppressed
- effect on LL-37 internalization (fluorescence intensity) (LAD2 mast cells [2]; [5]): significantly suppressed
